Values of other authors as cited in patent US4729992A, “Cephalosporin esters, their production and use” (Tatsuo Chemical Ind., Ltd., priority 1984, dated 1988).

Tests used:
Conditions in all cases: Antimicrobial Agent and Chemotherapy 14, 557-568 (1978)
Proteus morganii = tested on: Proteus morganii
Escherichia coli = tested on: Escherichia coli
Proteus vulgaris = tested on: Proteus vulgaris
Staphylococcus aureus = tested on: Staphylococcus aureus
Proteus mirabilis = tested on: Proteus mirabilis
Klebsiella pneumoniae = tested on: Klebsiella pneumoniae

Measured: antibacterial activity

CN(C)CCn1nnnc1SCC1=C(C(=O)O)N2C(=O)[C@@H](NC(=O)Cc3csc(N)n3)[C@H]2SC1 [compound [II], 7β-[2-(2-aminothiazol-4-yl)acetamido]3-[[[1-(2-dimethylaminoethyl)-1H-tetrazol-5-yl]thio]methyl]ceph-3-em-4-carboxylic acid]
potent antibacterial activity: all assays above
